Format in all cases: in vivo
The test system of one series is transplanted rice plant. Put plainly: Test Example 1: effect on crop, application before weed generation in submerged conditions (symbol a). As to conditions: application herbicide amount 320 g/ha. The procedure, abridged: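 Alluvial soil pots flooded to 4 cm water, sown with Echinochloa oryzacola, Scirpus juncoides and Monochoria vaginalis, then transplanted with 2.5 leaf stage rice seedlings; pre-emergence application. Greenhouse 25° C. to 30° C.; scored 0–5 by herbicidal ratio 3 weeks after application.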

The next series has as its system Avena fatua. Put plainly: Test Example 4: herbicidal effect by soil treatment (symbol I). The procedure, abridged:
(§1)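 Seeds were sown in sterilized diluvial soil, covered with about 1.5 cm of soil, and the soil surface was sprayed with a water-diluted emulsion of the compound at a predetermined rate. Plants grew in a greenhouse at 25° C. to 30° C.; effects were scored visually 3 weeks after application.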

In series [1] the test system is Apera spica-venti. Put plainly: Test Example 5: herbicidal effect by foliage application, plastic box (symbol L). As to conditions: 320 g/ha, 3 weeks after application. The procedure, abridged: (§2)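 After sowing into sterilized diluvial soil and growing two weeks under glass at 25° C. to 30° C., seedlings receive a uniform foliar spray of diluted emulsion. Damage is judged visually three weeks on.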

The test system of the next series is Chenopodium album. The experiment in a line: Test Example 4: herbicidal effect by soil treatment (symbol O). As to conditions: 320 g/ha. In outline: as §1
The subject of another series is Digitaria ciliaris. The experiment in a line: Test Example 4: herbicidal effect by soil treatment (symbol F). The procedure, abridged:
as §1

Series [2] concerns Stellaria media. Put plainly: Test Example 5: herbicidal effect by foliage application, plastic box (symbol P). As to conditions: 320 g/ha, 3 weeks after application. The procedure, abridged:
as §2

The next series concerns soybean. The experiment in a line: Test Example 4: effect on crop by soil treatment (symbol d). As to conditions: for d: soybean, effect grade on crop: 320 g/ha; for d: soybean, effect on crop grade: application herbicide amount 320 g/ha. In outline: (§3)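 Steps: fill box with sterilized diluvial soil; sow seed spot-like; cover with ~1.5 cm soil; grow in greenhouse (25° C. to 30° C.).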

Series [3] deals with Stellaria media. The experiment in a line: Test Example 4: herbicidal effect by soil treatment (symbol P). In outline:
as §1

Series [4] concerns Lolium multiflorum Lam. The experiment in a line: Test Example 5: herbicidal effect by foliage application, plastic box (symbol K). As to conditions: 320 g/ha, 3 weeks after application. The procedure, abridged: as §2
Series [5] deals with Echinochloa crus-galli var. crus-galli. Put plainly: Test Example 4: herbicidal effect by soil treatment (symbol H). In outline: as §1
The subject of series [6] is Echinochloa oryzacola Vasing. The experiment in a line: Test Example 1: herbicidal activity, application before weed generation in submerged conditions (symbol A). As to conditions: application herbicide amount 320 g/ha. The procedure, abridged: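 Ratings (5: ≥90%, near complete withering; 4: 70–<90%; 3: 40–<70%; 2: 20–<40%; 1: 5–<20%; 0: ≤5%) were assigned 3 weeks after the diluted emulsion was applied to the water surface of freshly sown, submerged pots.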

For another series, the system named is rice. The experiment in a line: Test Example 4: effect on crop by soil treatment (symbol b). As to conditions: for b: directly sowed rice plant, effect grade on crop: 320 g/ha; for b: directly sowed rice plant, effect on crop grade: application herbicide amount 320 g/ha. In outline: as §3
The subject of series [7] is Lolium multiflorum Lam. The experiment in a line: Test Example 4: herbicidal effect by soil treatment (symbol K). The procedure, abridged: as §1
The test system of series [8] is Echinochloa crus-galli var. crus-galli. Put plainly: Test Example 5: herbicidal effect by foliage application, plastic box (symbol H). As to conditions: 320 g/ha, 3 weeks after application. The procedure, abridged:
as §2

A further series deals with rapeseed. The experiment in a line: Test Example 4: effect on crop by soil treatment (symbol g). As to conditions: for g: rapeseed, effect grade on crop: 320 g/ha; for g: rapeseed, effect on crop grade: application herbicide amount 320 g/ha. In outline: as §3
The test system of a further series is Monochoria vaginalis. Put plainly: Test Example 2: herbicidal activity, application during weed generation in submerged conditions (symbol C). As to conditions: Table 23; application herbicide amount 320 g/ha; grade 0-5 by criteria of Test Example 1. The procedure, abridged: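 Visual herbicidal ratings, taken three weeks after dosing, reflect post-emergence water-surface application to seedlings at one to two leaves. Conditions: co-sown weeds in alluvial soil flooded to 4 cm, greenhouse held at 25° C. to 30° C.; compound given as water-diluted emulsion at a fixed herbicide amount.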

For series [9], the system named is Apera spica-venti. The experiment in a line: Test Example 4: herbicidal effect by soil treatment (symbol L). As to conditions: application herbicide amount 320 g/ha. The procedure, abridged: as §1
The next series concerns Veronica persica. Put plainly: Test Example 4: herbicidal effect by soil treatment (symbol R). As to conditions: application herbicide amount 320 g/ha. The procedure, abridged: as §1
Where [10] appears, read: application herbicide amount 320 g/ha.

For `CON=C(C)CC1CC(OC(=O)c2ccccc2OC(F)(F)F)=C(c2c(C)cc(C)cc2C)C1=O` (stereo not drawn) [1-155], in the series on transplanted rice plant, the “Effect grade on crop, a: transplanted rice plant” value is listed as 5 (Herbicidal ratio of 90% or more (almost completely withered)). Moreover, the “I: Avena fatua, herbicidal effect grade” value in the series on Avena fatua (320 g/ha) was 4 (Herbicidal ratio of 70% or higher and lower than 90%). Besides, in the series on Apera spica-venti [1], the “L: Apera spica-venti, herbicidal effect (criteria 0-5)” value is 5 (Herbicidal ratio of 90% or more (almost completely withered)). In addition, in the series on Chenopodium album, the “O: Chenopodium album, herbicidal effect grade” value is reported as 0 (Herbicidal ratio of 5% or lower (almost no effect)). In the series on Digitaria ciliaris (320 g/ha), the “F: Digitaria ciliaris, herbicidal effect grade” value (“F: Digitaria ciliaris” below) is 5 (Herbicidal ratio of 90% or more (almost completely withered)). In the series on Stellaria media [2], the “P: Stellaria media, herbicidal effect (criteria 0-5)” value is 2 (Herbicidal ratio of 20% or higher and lower than 40%). In the series with soybean, the “d: soybean, effect grade on crop” value is recorded as 0 (Herbicidal ratio of 5% or lower (almost no effect)). In addition, the “P: Stellaria media, herbicidal effect grade” value in the series with Stellaria media [3] (320 g/ha) was 0 (Herbicidal ratio of 5% or lower (almost no effect)). For the same compound, in the series with Lolium multiflorum Lam. [4], the “K: Lolium multiflorum Lam., herbicidal effect (criteria 0-5)” value is 5 (Herbicidal ratio of 90% or more (almost completely withered)). For the same compound, in series [5] (320 g/ha), the “H: Echinochloa crus-galli var. crus-galli, herbicidal effect grade” value was 5 (Herbicidal ratio of 90% or more (almost completely withered)). Moreover, the “Herbicidal effect grade, A: Echinochloa oryzacola Vasing.” value in series [6] is given as 5 (Herbicidal ratio of 90% or more (almost completely withered)). In the series with rice, the “b: directly sowed rice plant, effect grade on crop” value is recorded as 5 (Herbicidal ratio of 90% or more (almost completely withered)). In addition, in the series with Lolium multiflorum Lam. [7] (320 g/ha), the “K: Lolium multiflorum Lam., herbicidal effect grade” value was 5 (Herbicidal ratio of 90% or more (almost completely withered)). The “H: Echinochloa crus-galli var. crus-galli, herbicidal effect (criteria 0-5)” value in series [8] is reported as 5 (Herbicidal ratio of 90% or more (almost completely withered)). In addition, in the series on rapeseed, the “g: rapeseed, effect grade on crop” value is 4 (Herbicidal ratio of 70% or higher and lower than 90%). The “Herbicidal effect grade, C: Monochoria vaginalis” value (“Herbicidal effect grade, C” for short) in the series with Monochoria vaginalis was 3 (Herbicidal ratio of 40% or higher and lower than 70%).
For the compound `CON=C(C)CC1CC(OC(=O)Cc2ccc(OC)cc2)=C(c2c(C)cc(C)cc2C)C1=O` (stereo not drawn) [1-156], the “Effect grade on crop, a: transplanted rice plant” value with transplanted rice plant was 5 (Herbicidal ratio of 90% or more (almost completely withered)). In the series on Avena fatua (320 g/ha), the “I: Avena fatua, herbicidal effect grade” value was 4 (Herbicidal ratio of 70% or higher and lower than 90%). The “L: Apera spica-venti, herbicidal effect grade” value in the series with Apera spica-venti [1] is on record as 5 (Herbicidal ratio of 90% or more (almost completely withered)). Also, the “O: Chenopodium album, herbicidal effect grade” value in the series with Chenopodium album is listed as 0 (Herbicidal ratio of 5% or lower (almost no effect)). For the same compound, the “F: Digitaria ciliaris” value in the series with Digitaria ciliaris (320 g/ha) is reported as 5 (Herbicidal ratio of 90% or more (almost completely withered)). Also, the “P: Stellaria media, herbicidal effect grade” value was 3 (Herbicidal ratio of 40% or higher and lower than 70%) with Stellaria media [2]; 2 (Herbicidal ratio of 20% or higher and lower than 40%) in the series on Stellaria media [3] (320 g/ha). In addition, in the series with soybean, the “d: soybean, effect grade on crop” value was 0 (Herbicidal ratio of 5% or lower (almost no effect)). Moreover, the “K: Lolium multiflorum Lam., herbicidal effect grade” value with Lolium multiflorum Lam. [4] and in the series on Lolium multiflorum Lam. [7] (320 g/ha) was 5 (Herbicidal ratio of 90% or more (almost completely withered)) in each case. Moreover, the “H: Echinochloa crus-galli var. crus-galli, herbicidal effect grade” value in series [5] (320 g/ha) and in [8] was 5 (Herbicidal ratio of 90% or more (almost completely withered)) throughout. Also, the “Herbicidal effect grade, A: Echinochloa oryzacola Vasing.” value in [6] is on record as 5 (Herbicidal ratio of 90% or more (almost completely withered)). Moreover, in the series with rice, the “b: directly sowed rice plant, effect grade on crop” value is recorded as 5 (Herbicidal ratio of 90% or more (almost completely withered)). The “g: rapeseed, effect grade on crop” value with rapeseed was 4 (Herbicidal ratio of 70% or higher and lower than 90%). Also, the “Herbicidal effect grade, C” value in the series on Monochoria vaginalis was 3 (Herbicidal ratio of 40% or higher and lower than 70%).
Turning to `CON=C(C)CC1CC(O)=C(c2c(C)cc(C#CCO)cc2C)C1=O` (mixture of isomers) [6-025], the “Effect grade on crop, a: transplanted rice plant” value with transplanted rice plant was 3 (Herbicidal ratio of 40% or higher and lower than 70%). Further, the “I: Avena fatua, herbicidal effect grade” value with Avena fatua (setting [10]) is 2 (Herbicidal ratio of 20% or higher and lower than 40%). The “L: Apera spica-venti, herbicidal effect grade” value with Apera spica-venti [1] is 5 (Herbicidal ratio of 90% or more (almost completely withered)); in the series with Apera spica-venti [9], 4 (Herbicidal ratio of 70% or higher and lower than 90%). In the series on Digitaria ciliaris (setting [10]), the “F: Digitaria ciliaris” value was 3 (Herbicidal ratio of 40% or higher and lower than 70%). In addition, the “P: Stellaria media, herbicidal effect grade” value in the series with Stellaria media [2] and in the series with Stellaria media [3] (setting [10]) was 0 (Herbicidal ratio of 5% or lower (almost no effect)) in each case. Besides, in the series with soybean, the “d: soybean, effect on crop grade” value was 0 (Herbicidal ratio of 5% or lower (almost no effect)). Moreover, the “K: Lolium multiflorum Lam., herbicidal effect grade” value in the series on Lolium multiflorum Lam. [4] and in the series on Lolium multiflorum Lam. [7] (setting [10]) was 5 (Herbicidal ratio of 90% or more (almost completely withered)) in each case. In addition, the “H: Echinochloa crus-galli var. crus-galli, herbicidal effect grade” value is recorded as 0 (Herbicidal ratio of 5% or lower (almost no effect)) in [5] (setting [10]) and 5 (Herbicidal ratio of 90% or more (almost completely withered)) in [8]. The “Herbicidal effect grade, A: Echinochloa oryzacola Vasing.” value in series [6] was 2 (Herbicidal ratio of 20% or higher and lower than 40%). Besides, in the series on rice, the “b: directly sowed rice plant, effect on crop grade” value is reported as 5 (Herbicidal ratio of 90% or more (almost completely withered)). The “g: rapeseed, effect on crop grade” value in the series on rapeseed is 0 (Herbicidal ratio of 5% or lower (almost no effect)). Further, the “Herbicidal effect grade, C” value in the series with Monochoria vaginalis is listed as 0 (Herbicidal ratio of 5% or lower (almost no effect)). In the series on Veronica persica, the “R: Veronica persica, herbicidal effect grade” value is given as 0 (Herbicidal ratio of 5% or lower (almost no effect)).
In the case of `C=Cc1cc(C)c(C2=C(O)CC(CC(C)=NOC)C2=O)c(C)c1` (mixture of isomers) [6-031], the “Effect grade on crop, a: transplanted rice plant” value in the series with transplanted rice plant was 1 (Herbicidal ratio of 5% or higher and lower than 20%). In addition, the “I: Avena fatua, herbicidal effect grade” value with Avena fatua (setting [10]) is recorded as 0 (Herbicidal ratio of 5% or lower (almost no effect)). Moreover, the “L: Apera spica-venti, herbicidal effect grade” value was 4 (Herbicidal ratio of 70% or higher and lower than 90%) in the series with Apera spica-venti [1]; 0 (Herbicidal ratio of 5% or lower (almost no effect)) with Apera spica-venti [9]. The “F: Digitaria ciliaris” value in the series with Digitaria ciliaris (setting [10]) was 0 (Herbicidal ratio of 5% or lower (almost no effect)). The “P: Stellaria media, herbicidal effect grade” value with Stellaria media [2] and with Stellaria media [3] (setting [10]) was 0 (Herbicidal ratio of 5% or lower (almost no effect)) in each case. The “d: soybean, effect on crop grade” value in the series with soybean was 0 (Herbicidal ratio of 5% or lower (almost no effect)). Besides, the “K: Lolium multiflorum Lam., herbicidal effect grade” value in the series with Lolium multiflorum Lam. [4] is 5 (Herbicidal ratio of 90% or more (almost completely withered)); in the series with Lolium multiflorum Lam. [7] (setting [10]), 3 (Herbicidal ratio of 40% or higher and lower than 70%). The “H: Echinochloa crus-galli var. crus-galli, herbicidal effect grade” value in [5] (setting [10]) is 0 (Herbicidal ratio of 5% or lower (almost no effect)); in [8], 5 (Herbicidal ratio of 90% or more (almost completely withered)). In series [6], the “Herbicidal effect grade, A: Echinochloa oryzacola Vasing.” value is 3 (Herbicidal ratio of 40% or higher and lower than 70%). For the same compound, in the series with rice, the “b: directly sowed rice plant, effect on crop grade” value was 0 (Herbicidal ratio of 5% or lower (almost no effect)). The “g: rapeseed, effect on crop grade” value with rapeseed is 3 (Herbicidal ratio of 40% or higher and lower than 70%). In addition, in the series on Monochoria vaginalis, the “Herbicidal effect grade, C” value was 0 (Herbicidal ratio of 5% or lower (almost no effect)). For the same compound, the “R: Veronica persica, herbicidal effect grade” value with Veronica persica is 0 (Herbicidal ratio of 5% or lower (almost no effect)).

The values above are taken from patent US11000033B2, “Ketone or oxime compound, and herbicide” (NISSAN CHEMICAL CORPORATION, priority 2014, dated 2021).
